Source: ChEMBL document CHEMBL1201862, “PubChem BioAssay data set” (2004)
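Growth conditions: 96-well plates. Treatment: test compound, 48 hours, 5 concentrations. Analysis: linear interpolation between bracketing concentrations; unreached endpoints set to highest concentration. Abbreviation: GI50, concentration required for 50% inhibition of growth.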 Calls of active or inactive are those of the source. Rule as the data show it: active = GI50 up to about 1.1 µM and inactive = higher.

Legend:
Assay in all cases: growth of human tumour cells (NCI), 48 h
[1] = system: 786-0
[2] = system: A498
[3] = system: A549
[4] = system: ACHN
[5] = system: BT-549
[6] = system: CAKI-1
[7] = system: CCRF-CEM
[8] = system: COLO 205
[9] = system: DU-145
[10] = system: EKVX
[11] = system: HCC 2998
[12] = system: HCT-116
[13] = system: HCT-15
[14] = system: HL-60
[15] = system: HOP-62
[16] = system: HOP-92
[17] = system: HT-29
[18] = system: Hs-578T
[19] = system: IGROV-1
[20] = system: K562
[21] = system: KM12
[22] = system: LOX IMVI
[23] = system: M14
[24] = system: MCF7
[25] = system: MDA-MB-231
[26] = system: MDA-MB-435
[27] = system: MDA-N
[28] = system: MOLT-4
[29] = system: Malme-3M
[30] = system: NCI-H226
[31] = system: NCI-H23
[32] = system: NCI-H460
[33] = system: NCI-H522
[34] = system: NCI/ADR-RES
[35] = system: OVCAR-3
[36] = system: OVCAR-4
[37] = system: OVCAR-5
[38] = system: OVCAR-8
[39] = system: PC-3
[40] = system: RPMI-8226
[41] = system: RXF 393
[42] = system: SF-268
[43] = system: SF-295
[44] = system: SF-539
[45] = system: SK-MEL-28
[46] = system: SK-MEL-5
[47] = system: SN12C
[48] = system: SNB-19
[49] = system: SNB-75
[50] = system: SR
[51] = system: SW-620
[52] = system: T47D
[53] = system: TK-10
[54] = system: U-251
[55] = system: UACC-257
[56] = system: UO-31

SMILES: CN(C)Cc1cc(C(=O)/C=C/c2ccccc2)cc(CN(C)C)c1O
- GI50 [1]: 30.1 µM (inactive)
- GI50 [2]: 21.8 µM (inactive)
- GI50 [3]: 23.4 µM (inactive)
- GI50 [4]: 15.8 µM (inactive)
- GI50 [5]: 19.9 µM (inactive)
- GI50 [6]: 36.1 µM (inactive)
- GI50 [7]: 19.4 µM (inactive)
- GI50 [8]: 17.8 µM (inactive)
- GI50 [9]: 33 µM (inactive)
- GI50 [10]: 33.6 µM (inactive)
- GI50 [11]: 21.3 µM (inactive)
- GI50 [12]: 19.7 µM (inactive)
- GI50 [13]: 30.3 µM
- GI50 [14]: 15.5 µM (inactive)
- GI50 [15]: 32.4 µM (inactive)
- GI50 [16]: 26.7 µM (inactive)
- GI50 [17]: 16.9 µM (inactive)
- GI50 [18]: 36.1 µM (inactive)
- GI50 [19]: 31.9 µM (inactive)
- GI50 [20]: 14.2 µM (inactive)
- GI50 [21]: 18.6 µM (inactive)
- GI50 [22]: 5.14 µM (inactive)
- GI50 [23]: 20.7 µM (inactive)
- GI50 [24]: 30.8 µM (inactive)
- GI50 [25]: 21.9 µM (inactive)
- GI50 [26]: 31.6 µM (inactive)
- GI50 [27]: 13.3 µM (inactive)
- GI50 [28]: 16.8 µM (inactive)
- GI50 [29]: 22.6 µM (inactive)
- GI50 [30]: 27.9 µM (inactive)
- GI50 [31]: 28.1 µM (inactive)
- GI50 [32]: 15.9 µM (inactive)
- GI50 [33]: 19.5 µM (inactive)
- GI50 [34]: 26.5 µM (inactive)
- GI50 [35]: 18.7 µM (inactive)
- GI50 [36]: 20.4 µM (inactive)
- GI50 [37]: 87.5 µM (inactive)
- GI50 [38]: 27 µM (inactive)
- GI50 [39]: 12.6 µM (inactive)
- GI50 [40]: 11.8 µM (inactive)
- GI50 [41]: 16.5 µM (inactive)
- GI50 [42]: 32.5 µM (inactive)
- GI50 [43]: 15.5 µM (inactive)
- GI50 [44]: 19.7 µM (inactive)
- GI50 [45]: 20.6 µM (inactive)
- GI50 [46]: 16.6 µM (inactive)
- GI50 [47]: 11.7 µM (inactive)
- GI50 [48]: 29.1 µM (inactive)
- GI50 [49]: 24.9 µM (inactive)
- GI50 [50]: 19.7 µM (inactive)
- GI50 [51]: 18.2 µM (inactive)
- GI50 [52]: 30.8 µM (inactive)
- GI50 [53]: 37.3 µM (inactive)
- GI50 [54]: 35.3 µM (inactive)
- GI50 [55]: 13.3 µM (inactive)
- GI50 [56]: 17.5 µM (inactive)
